Several values for one entry are separate records, joined by “and”; a condition that tells them apart may be missing. Equal values may be shown once.
Tests used:
Format in all cases: cell-based, Escherichia coli
E. coli ATCC 12435 = experiment: Log kill / surviving titer in aqueous bacterial suspension, plating on TSA; conditions: for cfu per ml: no lactic acid (0.00 control 3.41E+07)
Method: The “reaction” (i.e. interaction of antimicrobial agent and the target organism) was initiated by the addition of bacteria to the antimicrobial solution. The reaction was allowed to proceed for the respective time periods listed in Table I (i.e., at least 15 seconds each) and was terminated at the end of that time by adding quench buffer comprising 3.2 M potassium phosphate buffer, pH 7.2. The sample then was evaluated using serial 10-fold dilutions into sterile phosphate buffer as needed to determine, on Tryptic Soy agar (“TSA”), the titer of surviving bacteria. TSA is a medium that allows the growth of most bacteria.
The reduction in the bacterial count is expressed as the “log kill” which is defined as log10 [initial cfu/ml]−log10 [remaining cfu/ml]; where “cfu” refers to “colony forming unit.” All log kills reported herein are positive “base 10.”). Inasmuch as the standard assay mixture contained only ca. 25×10^6 cfu initially (equivalent to 7.398 log) the theoretical maximum kill that can be measured with this assay system is ca. 7.4 log and the practical measuring limit is ca. 6 log. Therefore, high levels of log reduction were monitored by plating reaction mixtures directly (without dilution) onto agar medium. The results are reported in Table I and illustrated in graph format in FIG. 1. […] The tests were replicated with E. coli ATCC 43888, a pathogenic strain of E. coli O157:H7. […]
After incubation for 15 seconds at ambient temperature the reaction was quenched by addition of phosphate buffer and the titer of surviving bacteria was determined by plating on TSA as described in the previous examples. […] The amphoteric and zwitterionic surfactants, which carry a net positive charge under the conditions of the reaction mixture, caused enhancement of the log kill by lactic acid. All anionic surfactants tested caused substantial enhancement of the log kill by lactic acid.

E. coli ATCC 43888 = experiment: Reaction mixture streak plate, visual observation; conditions: room temperature
Method: The tests were performed at room temperature.

E. coli SAC-2 = experiment: Log kill / surviving titer in aqueous bacterial suspension, plating on TSA; conditions: for Log Kill […] Lactic Acid: 75 degrees F.; for Log Kill: sulfate; for cfu per ml: 75 deg. F. (0.00 control 4.18E+07)
Method: In each instance a target sample was employed using approximately 50 micro liters of an SAC-2 culture. E. coli “SAC-2,” was a Gram-negative strain isolated from municipal sewage. The tests were performed at room temperature, i.e., 75 deg. F. […] The results of each test sample were evaluated using a series of 10-fold dilutions as needed to determine, on a standard plating agar (TSA), the titer of bacteria that survived the antimicrobial treatment.
The same procedure was employed as in Example 2, but the only agent added to the target solution was Niaproof 08. No lactic acid was employed.
The mixture was then diluted and plated as previously described.
Increasing amounts of reagent were added to a series of test tubes. […] The bacterial titer of each mixture was determined by preparation and plating of serial dilutions on TSA.
[…] […] The amphoteric and zwitterionic surfactants, which carry a net positive charge under the conditions of the reaction mixture, caused enhancement of the log kill by lactic acid. All anionic surfactants tested caused substantial enhancement of the log kill by lactic acid.

[1] = system: E. coli ATCC 43888 (O157:H7); experiment: Log kill in aqueous bacterial suspension, plating on TSA; conditions: 73 deg. F.
[2] = Niaproof 08 0.02 wt./wt. % in 2.5 wt. % lactic acid
[3] = Niaproof 08 0.04 wt./wt. % in 2.5 wt. % lactic acid
[4] = Niaproof 08 0.06 wt./wt. % in 2.5 wt. % lactic acid
[5] = Niaproof 08 0.10 wt./wt. % in 2.5 wt. % lactic acid

SMILES: CCCCC(CC)COS(=O)(=O)[O-].[Na+] (centres unmarked) [Niaproof 08, sodium 2-ethylhexyl sulfate]
- Log Kill (Lactic Acid + Surfactant) (E. coli ATCC 12435; 0.1% Niaproof 08 in 2.5% lactic acid, 15 seconds, 83 degrees F.): 6.54 log
- Enhancement Factor (E. coli ATCC 12435; [2]): 1.52
- Log Kill (E. coli ATCC 12435; [2]): 3.469 log
- Enhancement Factor (E. coli ATCC 12435; [3]): 1.43
- Log Kill (E. coli ATCC 12435; [3]): 3.259 log
- Enhancement Factor (E. coli ATCC 12435; [4]): 2.79
- Log Kill (E. coli ATCC 12435; [4]): 6.367 log
- Enhancement Factor (E. coli ATCC 12435; [5]): 2.86
- Log Kill (E. coli ATCC 12435; [5]): 6.539 log
- cfu per ml (E. coli ATCC 12435; Niaproof 08 alone 0.02 % wt./wt.): 3.41E+07 cfu per ml
- cfu per ml (E. coli ATCC 12435; Niaproof 08 alone 0.06 % wt./wt.): 3.43E+07 cfu per ml
- cfu per ml (E. coli ATCC 12435; Niaproof 08 alone 0.14 % wt./wt.): 3.56E+07 cfu per ml
- cfu per ml (E. coli ATCC 12435; Niaproof 08 alone 0.20 % wt./wt.): 3.04E+07 cfu per ml
- Description/Observation (E. coli ATCC 43888; Niaproof 08 0.02 % wt./wt. in 2.5 wt. % lactic acid): Extensive bacterial growth.
- Description/Observation (E. coli ATCC 43888; Niaproof 08 0.04 % wt./wt. in 2.5 wt. % lactic acid): No bacterial growth.
- Description/Observation (E. coli ATCC 43888; Niaproof 08 0.06 % wt./wt. in 2.5 wt. % lactic acid): No bacterial growth.
- Description/Observation (E. coli ATCC 43888; Niaproof 08 0.08 % wt./wt. in 2.5 wt. % lactic acid): No bacterial growth.
- Description/Observation (E. coli ATCC 43888; Niaproof 08 0.10 % wt./wt. in 2.5 wt. % lactic acid): No bacterial growth.
- concentration of surfactant at which all bacteria added were killed (E. coli ATCC 43888; in 2.5 wt. % lactic acid): ≥ 0.04%
- Log Kill […] Lactic Acid (E. coli SAC-2; Niaproof 08 0.02 % wt./wt. in […] lactic acid, 15 seconds): 0.575 log
- Enhancement Factor (log10 kill with lactic acid and surfactant divided by log10 kill with lactic acid only) (E. coli SAC-2; [2]): 2.37
- Log Kill (E. coli SAC-2; Niaproof 08 0.02 wt./wt. % in 2.5 wt. % lactic acid, 15 seconds, room temperature): 1.08 log and 1.080 log
- Log Kill […] Lactic Acid (E. coli SAC-2; Niaproof 08 0.04 % wt./wt. in […] lactic acid, 15 seconds): 1.060 log
- Enhancement Factor (log10 kill with lactic acid and surfactant divided by log10 kill with lactic acid only) (E. coli SAC-2; [3]): 3.82
- Log Kill (E. coli SAC-2; Niaproof 08 0.04 wt./wt. % in 2.5 wt. % lactic acid, 15 seconds, room temperature): 1.74 log and 1.740 log
- Log Kill […] Lactic Acid (E. coli SAC-2; Niaproof 08 0.06 % wt./wt. in […] lactic acid, 15 seconds): 1.011 log
- Log Kill […] Lactic Acid (E. coli SAC-2; Niaproof 08 0.08 % wt./wt. in […] lactic acid, 15 seconds): 2.110 log
- Enhancement Factor (log10 kill with lactic acid and surfactant divided by log10 kill with lactic acid only) (E. coli SAC-2; Niaproof 08 0.08 wt./wt. % in 2.5 wt. % lactic acid): 10.5
- Log Kill (E. coli SAC-2; Niaproof 08 0.08 wt./wt. % in 2.5 wt. % lactic acid, 15 seconds, room temperature): 4.8 log and 4.800 log
- Log Kill […] Lactic Acid (E. coli SAC-2; Niaproof 08 0.10 % wt./wt. in […] lactic acid, 15 seconds): 2.770 log
- Log Kill […] Lactic Acid (E. coli SAC-2; Niaproof 08 0.12 % wt./wt. in […] lactic acid, 15 seconds): 2.820 log
- Enhancement Factor (log10 kill with lactic acid and surfactant divided by log10 kill with lactic acid only) (E. coli SAC-2; Niaproof 08 0.12 wt./wt. % in 2.5 wt. % lactic acid): 13.4
- Log Kill (E. coli SAC-2; Niaproof 08 0.12 wt./wt. % in 2.5 wt. % lactic acid, 15 seconds, room temperature): 6.1 log and 6.100 log
- Enhancement Factor (log10 kill with lactic acid and surfactant divided by log10 kill with lactic acid only) (E. coli SAC-2; Niaproof 08 0.16 wt./wt. % in 2.5 wt. % lactic acid): 13.4
- Log Kill (E. coli SAC-2; Niaproof 08 0.16 wt./wt. % in 2.5 wt. % lactic acid, 15 seconds, room temperature): 6.1 log and 6.100 log
- Log Kill […] Lactic Acid (E. coli SAC-2; Niaproof 08 0.20 % wt./wt. in […] lactic acid, 15 seconds): 5.980 log
- Enhancement Factor (log10 kill with lactic acid and surfactant divided by log10 kill with lactic acid only) (E. coli SAC-2; Niaproof 08 0.20 wt./wt. % in 2.5 wt. % lactic acid): 13.4
- Log Kill (E. coli SAC-2; Niaproof 08 0.20 wt./wt. % in 2.5 wt. % lactic acid, 15 seconds, room temperature): ~6 log and 6.1 log and 6.100 log
- Log Kill […] Lactic Acid (E. coli SAC-2; Niaproof 08 […] wt./wt. in […] lactic acid, 15 seconds): 5.980 log
- elimination of detectable E. coli (E. coli SAC-2; Niaproof 08 above about 0.2 wt./wt. % in 2.5 wt. % lactic acid, 15 seconds, room temperature): complete elimination of detectable E. coli
- cfu per ml (E. coli SAC-2; Niaproof 08 alone 0.02 % wt./wt., no lactic acid, 15 seconds): 4.05E+07 cfu per ml
- cfu per ml (E. coli SAC-2; Niaproof 08 alone 0.06 % wt./wt., no lactic acid, 15 seconds): 3.63E+07 cfu per ml
- cfu per ml (E. coli SAC-2; Niaproof 08 alone 0.14 % wt./wt., no lactic acid, 15 seconds): 4.25E+07 cfu per ml
- cfu per ml (E. coli SAC-2; Niaproof 08 alone 0.20 % wt./wt., no lactic acid, 15 seconds): 4.15E+07 cfu per ml
- antimicrobial effect of Niaproof 08 by itself (E. coli SAC-2; no lactic acid, up to 0.20 % wt./wt., 15 seconds): no antimicrobial effect
- Log Kill (Lactic Acid + Surfactant) (E. coli SAC-2; surfactant 0.2% in 2.5% lactic acid, 15 seconds, 74 to 80 degrees F.): 4.08 log
- +Niaproof 08 (Log Kill) ([1]; 2.5% lactic acid + Niaproof 08, pH 2.19, 20 secs.): 5.75 log
- +Niaproof 08 (Log Kill) ([1]; 2.5% lactic acid + Niaproof 08, pH 2.42, 20 secs.): 3.17 log
- +Niaproof 08 (Log Kill) ([1]; 2.5% lactic acid + Niaproof 08, pH 2.59, 20 secs.): 3.81 log
- +Niaproof 08 (Log Kill) ([1]; 2.5% lactic acid + Niaproof 08, pH 2.74, 20 secs.): 4.94 log
- +Niaproof 08 (Log Kill) ([1]; 2.5% lactic acid + Niaproof 08, pH 2.86, 20 secs.): 5.01 log
- +Niaproof 08 (Log Kill) ([1]; 2.5% lactic acid + Niaproof 08, pH 3.24, 20 secs.): 0 log
- +Niaproof 08 (Log Kill) ([1]; 2.5% lactic acid + Niaproof 08, pH 3.67, 20 secs.): 0 log

— patent US20140272041A1, “METHODS OF REDUCING PATHOGENS DURING PROCESSING OR POST-PROCESSING OF BEEF, POULTRY AND OTHER MEAT PRODUCTS” (BIRKO Corporation, priority 2009, published 2014)
